Measured values taken from the NIST ThermoML archive (doi:10.1021/je500886a).

Assay: mn = molality of the nth substance listed, in mol/kg
Conditions: 101 kPa, Liquid

O=C[C@H](O)[C@@H](O)[C@@H](O)[C@H](O)CO [(+)-galactose] + O
Conditions | mass density [kg/m3] | viscosity [mPa·s]
288.15 K, m1 = 0.05001 | – | 1.166
288.15 K, m1 = 0.05096 | 1002.7 | –
288.15 K, m1 = 0.06903 | 1003.95 | –
288.15 K, m1 = 0.07068 | – | 1.178
288.15 K, m1 = 0.09042 | 1005.42 | –
288.15 K, m1 = 0.09059 | – | 1.189
288.15 K, m1 = 0.1099 | – | 1.199
288.15 K, m1 = 0.1289 | – | 1.208
288.15 K, m1 = 0.1513 | – | 1.22
288.15 K, m1 = 0.1552 | 1009.81 | –
298.15 K, m1 = 0.05001 | – | 0.91
298.15 K, m1 = 0.05096 | 1000.58 | –
298.15 K, m1 = 0.06903 | 1001.82 | –
298.15 K, m1 = 0.07068 | – | 0.919
298.15 K, m1 = 0.09042 | 1003.27 | –
298.15 K, m1 = 0.09059 | – | 0.927
298.15 K, m1 = 0.1099 | – | 0.935
298.15 K, m1 = 0.1102 | 1004.61 | –
298.15 K, m1 = 0.1289 | – | 0.941
298.15 K, m1 = 0.1322 | 1006.08 | –
298.15 K, m1 = 0.1513 | – | 0.951
308.15 K, m1 = 0.05001 | – | 0.734
308.15 K, m1 = 0.05096 | 997.56 | –
308.15 K, m1 = 0.06903 | 998.79 | –
308.15 K, m1 = 0.07068 | – | 0.741
308.15 K, m1 = 0.09042 | 1000.22 | –
308.15 K, m1 = 0.09059 | – | 0.747
308.15 K, m1 = 0.1099 | – | 0.753
308.15 K, m1 = 0.1102 | 1001.54 | –
308.15 K, m1 = 0.1289 | – | 0.758
308.15 K, m1 = 0.1322 | 1003 | –
308.15 K, m1 = 0.1513 | – | 0.766
308.15 K, m1 = 0.1552 | 1004.51 | –
318.15 K, m1 = 0.05001 | – | 0.607
318.15 K, m1 = 0.05096 | 993.7 | –
318.15 K, m1 = 0.06903 | 994.91 | –
318.15 K, m1 = 0.07068 | – | 0.612
318.15 K, m1 = 0.09042 | 996.33 | –
318.15 K, m1 = 0.09059 | – | 0.617
318.15 K, m1 = 0.1099 | – | 0.621
318.15 K, m1 = 0.1102 | 997.64 | –
318.15 K, m1 = 0.1289 | – | 0.625
318.15 K, m1 = 0.1322 | 999.07 | –
318.15 K, m1 = 0.1513 | – | 0.63
318.15 K, m1 = 0.1552 | 1000.57 | –

O=C[C@@H](O)[C@H](O)[C@H](O)CO [D-(-)-arabinose] + O
Conditions | mass density, 288.15 K [kg/m3] | mass density, 298.15 K [kg/m3] | mass density, 308.15 K [kg/m3] | mass density, 318.15 K [kg/m3] | viscosity, 288.15 K [mPa·s] | viscosity, 298.15 K [mPa·s] | viscosity, 308.15 K [mPa·s] | viscosity, 318.15 K [mPa·s]
m1 = 0.05173 | 1002.09 | 999.97 | 996.94 | 993.08 | – | – | – | –
m1 = 0.05178 | – | – | – | – | 1.157 | 0.905 | 0.73 | 0.604
m1 = 0.0695 | – | – | – | – | 1.164 | 0.909 | 0.734 | 0.608
m1 = 0.07102 | 1003.18 | 1001.05 | 998 | 994.13 | – | – | – | –
m1 = 0.08979 | – | – | – | – | 1.17 | 0.915 | 0.738 | 0.611
m1 = 0.09055 | 1004.28 | 1002.13 | 999.06 | 995.18 | – | – | – | –
m1 = 0.1077 | – | – | – | – | 1.177 | 0.92 | 0.741 | 0.614
m1 = 0.1093 | 1005.32 | 1003.17 | 1000.07 | 996.18 | – | – | – | –
m1 = 0.1244 | 1006.17 | 1004 | 1000.88 | 996.98 | – | – | – | –
m1 = 0.1267 | – | – | – | – | 1.182 | 0.925 | 0.745 | 0.616
m1 = 0.1476 | 1007.45 | 1005.26 | 1002.12 | 998.21 | – | – | – | –
m1 = 0.151 | – | – | – | – | 1.191 | 0.932 | 0.75 | 0.621

OC[C@@H](O)C(O)[C@H](O)CO [D-arabitol] + O
Conditions | mass density, 288.15 K [kg/m3] | mass density, 298.15 K [kg/m3] | mass density, 308.15 K [kg/m3] | mass density, 318.15 K [kg/m3] | viscosity, 288.15 K [mPa·s] | viscosity, 298.15 K [mPa·s] | viscosity, 308.15 K [mPa·s] | viscosity, 318.15 K [mPa·s]
m1 = 0.05025 | – | – | – | – | 1.162 | 0.906 | 0.73 | 0.604
m1 = 0.0542 | 1001.87 | 999.73 | 996.7 | 992.83 | – | – | – | –
m1 = 0.06886 | – | – | – | – | 1.172 | 0.913 | 0.735 | 0.608
m1 = 0.07304 | 1002.82 | 1000.65 | 997.61 | 993.72 | – | – | – | –
m1 = 0.08867 | 1003.59 | 1001.41 | 998.35 | 994.45 | – | – | – | –
m1 = 0.09155 | – | – | – | – | 1.183 | 0.92 | 0.74 | 0.611
m1 = 0.1053 | 1004.4 | 1002.21 | 999.14 | 995.22 | – | – | – | –
m1 = 0.1061 | – | – | – | – | 1.189 | 0.925 | 0.744 | 0.613
m1 = 0.1258 | – | – | – | – | 1.198 | 0.931 | 0.748 | 0.617
m1 = 0.1323 | 1005.72 | 1003.5 | 1000.41 | 996.46 | – | – | – | –
m1 = 0.1507 | – | – | – | – | 1.209 | 0.94 | 0.754 | 0.621
m1 = 0.1512 | 1006.64 | 1004.39 | 1001.3 | 997.33 | – | – | – | –
